Tests used:
[1] = Cytotoxicity assay (MTT assay); assay type: cell-based; conditions: human, HepG2 cells, HepG 2 cell line
Experimental: To find out cytotoxicity of 6-methylpyridine derivative of the chemical formula 1, an in vitro experiment was conducted on the basis of the generally known MTT assay using HepG 2 cell line.

[2] = molecular target: T1, HCV RNA polymerase (RNA dependent RNA polymerase, NS5B) (Hepatitis C virus genotype 1b, UniProt P26663); test: Inhibitory effect on activity of recombinant HCV RNA polymerase in vitro; assay type: biochemical, Hepatitis C virus (HCV-1b type)
T1 construct: NS5B region (1773 bps) was amplified by PCR and cloned into pVLHIS; (His)6; made in house; host or cells: Sf9 insect cells infected with recombinant baculovirus (pVLHIS-NS5B)
Experimental: Test of Inhibitory Effect on Activity of HCV RNA Polymerase (RNA Dependent RNA Polymerase, NS5B) In Vitro
The following in vitro experiments were conducted to find out the effect of inhibition activity of compounds of the present invention against HCV RNA Polymerase (RNA dependent RNA polymerase, NS5B).
HCV cDNA was obtained from the blood of HCV-1b type HCV patient and NS5B region (1773 bps) was amplified by PCR and cloned into pVLHIS, a baculovirus transfer vector, to prepare recombinant transfer vector. The prepared transfer vector and the wild-type AcNPV vector were cotransfected into Sf 9 cell line to yield recombinant baculovirus with the histidine-tagged recombinant vector pVLHIS-NS5B. Sufficiently cultured insect cells were infected with the resulting recombinant baculovirus and cultured in Grace' medium containing 10% FBS for 3–4 days. The culture broth was centrifuged to obtain only the infected cells. The cells were washed three times with PBS and resuspended in binding buffer [50 mM Na-phosphate (pH 8.0), 30 mM NaCl, 10 mM imidazole, 1 mM DTT, 10% glycerol, 1% NP-40], sonicated and the clearized lysate was obtained. Recombinant NS5B was purified by affinity column chromatography using a Ni-NTA His bind resin (Novagen) to produce pure NS5B protein. The (His)6-tagged NS5B was bound to Ni-NTA resin and washed with the binding buffer containing 50 mM imidazole. The bound NS5B was eluted with the binding buffer containing imidazole in a step-gradient manner (100–300 mM). The NS5B protein fractions were dialyzed against buffer [50 mM Tris-HCl, 50 mM NaCl, 1 mM DTT, […], 10% glycerol], followed by at −70° C. in a small aliquot.
The 3′UTR cDNA (220 bp) of HCV was obtained from 1b HCV RNA of the blood of a hepatitis C patient by PCR and cloned into pcDNA3 vector. Linearized DNA fragment containing 3′-UTR was prepared using the restriction enzyme, EcoRI and used as a temperate for in vitro transcription using T7 RNA ploymerase to prepare RNA fragment containing 3′-UTR.
In Vitro inhibitory activity of the compounds of the present invention against recombinant HCV RNA polymerase was measured as follows.
A streptavidin-coated well plate was prepared suitable for the sample to be examined. 25 μl of 2× assay buffer [50 mM Tris-Cl (pH 7.5), 100 mM NaCl, 10 mM MgCl2, 20 mM KCl, 1 mM EDTA, 1 mM DTT] and 10 μl of purified HCV RNA polymerase 200 ng and 3′-UTR template RNA were added to each well. Then, 5 μl of the sample to be examined was added to have final concentrations of 10, 1, 0.1 and 0.01 μg/mL. […] The optical density (OD) was measured using an ELISA reader (Bio-Tek instrument Co.) at 405 nm. The inhibitory effect on the activity of HCV polymerase was calculated by subtracting the OD of the positive control without the sample.

T1 sequence (P26663 2420-3010): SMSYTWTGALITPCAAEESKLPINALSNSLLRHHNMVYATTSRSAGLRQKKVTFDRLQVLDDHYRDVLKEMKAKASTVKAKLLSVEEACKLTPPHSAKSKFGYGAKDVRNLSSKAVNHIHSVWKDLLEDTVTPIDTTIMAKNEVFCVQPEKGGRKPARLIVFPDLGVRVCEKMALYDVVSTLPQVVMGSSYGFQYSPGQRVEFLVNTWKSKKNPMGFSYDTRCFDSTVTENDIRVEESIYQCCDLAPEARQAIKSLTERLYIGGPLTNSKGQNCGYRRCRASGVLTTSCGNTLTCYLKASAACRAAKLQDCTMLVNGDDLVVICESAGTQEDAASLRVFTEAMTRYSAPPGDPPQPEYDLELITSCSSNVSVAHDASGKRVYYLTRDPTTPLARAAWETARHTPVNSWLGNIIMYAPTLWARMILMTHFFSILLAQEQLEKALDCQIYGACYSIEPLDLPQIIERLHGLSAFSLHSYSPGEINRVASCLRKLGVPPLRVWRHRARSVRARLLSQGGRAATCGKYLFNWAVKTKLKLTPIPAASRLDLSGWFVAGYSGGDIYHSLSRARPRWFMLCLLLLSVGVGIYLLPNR

With Cc1ccc(C(=O)O)c(Nc2ccc(N3CCOCC3)cc2)n1 [Example 1, 6-methyl-2-[4-(4-morpholino)anilino] nicotinic acid] the CC50 [1] was over 100 µg/mL, the “Inhibition of activity of HCV RNA polymerase (%)” value (“Inhibition of activity … (%)” for short) ([2]; 0.01 μg/ml) was 46% and the “Inhibition of activity … (%)” value ([2]; 0.1 μg/ml) was 65%. For the same compound, the “Inhibition of activity … (%)” value ([2]; 1 μg/ml) was 82% and the “Inhibition of activity … (%)” value ([2]; 10 μg/ml) was 99%.
